Results taken from article PMC8523698, “Preclinical characterization of an intravenous coronavirus 3CL protease inhibitor for the potential treatment of COVID19” (Nature Communications, 2021).
Several values for one entry are separate records, joined by “and”; a condition that tells them apart may be missing. Equal entries are not always repeated.

How the values were obtained:
CYP2C19 = CYP2C19 (Homo sapiens, UniProt P33261); experiment: Reversible CYP inhibition in human liver microsomes; settings: human, microsomes, pH 7.4, Percent of Control Activity; for activity at 93.5 µM: CYP 2C19, 93.5 µM; for activity at 200 µM: CYP 2C19, 200 µM
Chain of CYP2C19 (P33261 whole entry): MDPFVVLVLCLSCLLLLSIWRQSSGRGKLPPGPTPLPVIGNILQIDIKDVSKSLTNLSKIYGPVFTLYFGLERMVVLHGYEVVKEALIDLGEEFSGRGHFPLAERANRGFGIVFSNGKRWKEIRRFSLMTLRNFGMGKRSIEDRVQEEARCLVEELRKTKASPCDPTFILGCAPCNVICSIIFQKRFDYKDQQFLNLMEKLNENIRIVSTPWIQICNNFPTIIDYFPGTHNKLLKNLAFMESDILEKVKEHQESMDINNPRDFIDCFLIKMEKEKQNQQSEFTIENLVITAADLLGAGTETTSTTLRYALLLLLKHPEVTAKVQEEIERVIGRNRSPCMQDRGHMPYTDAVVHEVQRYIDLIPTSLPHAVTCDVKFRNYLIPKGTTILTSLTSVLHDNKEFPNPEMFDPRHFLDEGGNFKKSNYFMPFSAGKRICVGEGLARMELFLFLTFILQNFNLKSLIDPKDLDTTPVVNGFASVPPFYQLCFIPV

CYP2D6 = CYP2D6 (Homo sapiens, UniProt P10635); experiment: as above
Chain of CYP2D6 (P10635 whole entry): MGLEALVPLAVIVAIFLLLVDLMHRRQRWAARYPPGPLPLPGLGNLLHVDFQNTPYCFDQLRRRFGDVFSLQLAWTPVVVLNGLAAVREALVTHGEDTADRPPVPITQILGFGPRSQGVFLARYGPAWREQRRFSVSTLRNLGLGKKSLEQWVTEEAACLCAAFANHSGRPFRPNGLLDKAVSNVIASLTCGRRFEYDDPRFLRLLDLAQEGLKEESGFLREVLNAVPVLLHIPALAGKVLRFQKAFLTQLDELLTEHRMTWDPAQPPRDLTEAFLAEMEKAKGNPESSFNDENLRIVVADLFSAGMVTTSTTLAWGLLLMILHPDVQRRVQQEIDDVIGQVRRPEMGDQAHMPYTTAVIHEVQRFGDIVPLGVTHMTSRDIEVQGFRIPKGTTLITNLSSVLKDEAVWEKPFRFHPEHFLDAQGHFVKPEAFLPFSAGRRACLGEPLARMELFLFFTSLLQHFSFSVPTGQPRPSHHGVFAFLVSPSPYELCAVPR

MATE1 = target: T1, MATE1 (Homo sapiens, UniProt Q96FL8); experiment: Transporter inhibition using transfected HEK293 cells
T1 sequence (Q96FL8 1-570): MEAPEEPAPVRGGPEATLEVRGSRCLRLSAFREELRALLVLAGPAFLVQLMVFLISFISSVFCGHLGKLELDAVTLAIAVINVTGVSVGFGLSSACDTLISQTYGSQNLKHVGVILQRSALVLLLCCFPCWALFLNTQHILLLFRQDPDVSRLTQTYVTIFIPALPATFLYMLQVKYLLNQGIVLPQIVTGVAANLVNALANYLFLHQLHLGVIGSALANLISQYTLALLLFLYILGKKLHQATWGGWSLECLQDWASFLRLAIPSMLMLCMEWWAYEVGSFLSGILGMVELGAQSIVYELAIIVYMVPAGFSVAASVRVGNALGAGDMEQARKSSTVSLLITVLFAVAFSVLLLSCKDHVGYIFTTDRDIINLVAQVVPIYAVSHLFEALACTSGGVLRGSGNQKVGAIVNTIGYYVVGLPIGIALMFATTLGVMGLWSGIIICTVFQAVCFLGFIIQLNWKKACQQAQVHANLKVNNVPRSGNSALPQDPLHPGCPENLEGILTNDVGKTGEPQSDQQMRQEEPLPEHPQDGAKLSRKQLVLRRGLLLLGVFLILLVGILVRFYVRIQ

CYP3A4/5 = CYP3A4/5 (Homo sapiens, UniProt P08684); experiment: Time-dependent inhibition of CYP enzymes in human liver microsomes; settings: CYP3A4; Simcyp interaction input
Chain of CYP3A4/5 (P08684 whole entry): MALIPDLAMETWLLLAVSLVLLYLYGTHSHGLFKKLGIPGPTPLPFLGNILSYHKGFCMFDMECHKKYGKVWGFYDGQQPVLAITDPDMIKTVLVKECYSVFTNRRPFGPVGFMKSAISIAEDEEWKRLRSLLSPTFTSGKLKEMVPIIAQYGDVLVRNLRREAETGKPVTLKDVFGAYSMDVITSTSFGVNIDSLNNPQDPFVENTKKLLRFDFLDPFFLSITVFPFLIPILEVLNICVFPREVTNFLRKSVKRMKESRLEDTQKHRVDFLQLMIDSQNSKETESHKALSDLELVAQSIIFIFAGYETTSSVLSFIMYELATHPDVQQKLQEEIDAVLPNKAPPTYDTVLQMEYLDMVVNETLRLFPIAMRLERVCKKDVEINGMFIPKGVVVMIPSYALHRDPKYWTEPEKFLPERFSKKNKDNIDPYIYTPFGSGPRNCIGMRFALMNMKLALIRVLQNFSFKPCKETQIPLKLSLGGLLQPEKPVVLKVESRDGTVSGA

CYP3A = experiment: Enzyme kinetics of metabolite formation in HLM and effect of CYP3A inhibitor ketoconazole

With `COc1cccc2[nH]c(C(=O)N[C@@H](CC(C)C)C(=O)N[C@@H](C[C@@H]3CCNC3=O)C(=O)CO)cc12` [PF-00835231] the activity at 93.5 µM (CYP2C19; 30-Minute Preincubation) was 74.5%, the activity at 93.5 µM (CYP2C19; Zero-Minute Preincubation) was 76.8% and the activity at 200 µM (CYP2C19; 30-Minute Preincubation) was 64.9%. For the same compound, the activity at 200 µM (CYP2C19; Zero-Minute Preincubation) was 69.2%, the “Percent of Control Activity” value (CYP2D6; CYP 2D6, 0.1 µM, 30-Minute Preincubation, 0.1 µM) was 92.9% and 101.4% and the “Percent of Control Activity” value (CYP2D6; CYP 2D6, 0.1 µM, Zero-Minute Preincubation, 0.1 µM) was 87.8% and 108.7%. The “Percent of Control Activity” value (CYP2D6; CYP 2D6, 0.214 µM, 30-Minute Preincubation, 0.214 µM) was 106.1%, the “Percent of Control Activity” value (CYP2D6; CYP 2D6, 0.214 µM, Zero-Minute Preincubation, 0.214 µM) was 101.0% and 100.2% and the “Percent of Control Activity” value (CYP2D6; CYP 2D6, 0.979 µM, 30-Minute Preincubation, 0.979 µM) was 107.3% and 99.0%. The “Percent of Control Activity” value (CYP2D6; CYP 2D6, 0.979 µM, Zero-Minute Preincubation, 0.979 µM) was 96.4% and 103.2%, the “Percent of Control Activity” value (CYP2D6; CYP 2D6, 2.09 µM, 30-Minute Preincubation, 2.09 µM) was 102.6% and 103.8% and the “Percent of Control Activity” value (CYP2D6; CYP 2D6, 2.09 µM, Zero-Minute Preincubation, 2.09 µM) was 96.1% and 107.2%. For the same compound, the “Percent of Control Activity” value (CYP2D6; CYP 2D6, 4.48 µM, 30-Minute Preincubation, 4.48 µM) was 102.2% and 99.7%, the “Percent of Control Activity” value (CYP2D6; CYP 2D6, 4.48 µM, Zero-Minute Preincubation, 4.48 µM) was 105.0% and 106.1% and the “Percent of Control Activity” value (CYP2D6; CYP 2D6, 20.5 µM, 30-Minute Preincubation, 20.5 µM) was 113.8% and 117.9%. For the same compound, the “Percent of Control Activity” value (CYP2D6; CYP 2D6, 20.5 µM, Zero-Minute Preincubation, 20.5 µM) was 108.8%, the “Percent of Control Activity” value (CYP2D6; CYP 2D6, 43.8 µM, 30-Minute Preincubation, 43.8 µM) was 122.8% and 114.4% and the “Percent of Control Activity” value (CYP2D6; CYP 2D6, 43.8 µM, Zero-Minute Preincubation, 43.8 µM) was 99.1% and 109.2%. For the same compound, the “Percent of Control Activity” value (CYP2D6; CYP 2D6, 93.5 µM, 30-Minute Preincubation, 93.5 µM) was 122.0% and 119.6%, the “Percent of Control Activity” value (CYP2D6; CYP 2D6, 93.5 µM, Zero-Minute Preincubation, 93.5 µM) was 100.2% and the “Percent of Control Activity” value (CYP2D6; CYP 2D6, 200 µM, 30-Minute Preincubation, 200 µM) was 102.0% and 91.1%. For the same compound, the “Percent of Control Activity” value (CYP2D6; CYP 2D6, 200 µM, Zero-Minute Preincubation, 200 µM) was 73.5% and 82.2%, the IC50 (CYP2D6; human, microsomes, pH 7.4) was greater than 200 µM and the activity at 0.1 µM (CYP2D6; human, microsomes, pH 7.4, Percent of Control Activity, CYP 2D6, 0.1 µM, 30-Minute Preincubation) was 103%. For the same compound, the activity at 0.214 µM (CYP2D6; human, microsomes, pH 7.4, Percent of Control Activity, CYP 2D6, 0.214 µM, 30-Minute Preincubation) was 102%, the activity at 0.214 µM (CYP2D6; human, microsomes, pH 7.4, Percent of Control Activity, CYP 2D6, 0.214 µM, Zero-Minute Preincubation) was 98.6% and the activity at 0.979 µM (CYP2D6; human, microsomes, pH 7.4, Percent of Control Activity, CYP 2D6, 0.979 µM, 30-Minute Preincubation) was 104%. The activity at 0.979 µM (CYP2D6; human, microsomes, pH 7.4, Percent of Control Activity, CYP 2D6, 0.979 µM, Zero-Minute Preincubation) was 97.7%, the activity at 2.09 µM (CYP2D6; human, microsomes, pH 7.4, Percent of Control Activity, CYP 2D6, 2.09 µM, 30-Minute Preincubation) was 104% and the activity at 2.09 µM (CYP2D6; human, microsomes, pH 7.4, Percent of Control Activity, CYP 2D6, 2.09 µM, Zero-Minute Preincubation) was 99.9%. It also gave an activity at 4.48 µM (CYP2D6; human, microsomes, pH 7.4, Percent of Control Activity, CYP 2D6, 4.48 µM, 30-Minute Preincubation) of 109%, an activity at 4.48 µM (CYP2D6; human, microsomes, pH 7.4, Percent of Control Activity, CYP 2D6, 4.48 µM, Zero-Minute Preincubation) of 97.2% and an activity at 20.5 µM (CYP2D6; human, microsomes, pH 7.4, Percent of Control Activity, CYP 2D6, 20.5 µM, 30-Minute Preincubation) of 118%. It also gave an activity at 20.5 µM (CYP2D6; human, microsomes, pH 7.4, Percent of Control Activity, CYP 2D6, 20.5 µM, Zero-Minute Preincubation) of 97.6%, an activity at 43.8 µM (CYP2D6; human, microsomes, pH 7.4, Percent of Control Activity, CYP 2D6, 43.8 µM, 30-Minute Preincubation) of 119% and an activity at 43.8 µM (CYP2D6; human, microsomes, pH 7.4, Percent of Control Activity, CYP 2D6, 43.8 µM, Zero-Minute Preincubation) of 101%. It also gave an activity at 93.5 µM (CYP2D6; human, microsomes, pH 7.4, Percent of Control Activity, CYP 2D6, 93.5 µM, 30-Minute Preincubation) of 120%, an activity at 93.5 µM (CYP2D6; human, microsomes, pH 7.4, Percent of Control Activity, CYP 2D6, 93.5 µM, Zero-Minute Preincubation) of 91.9% and an activity at 200 µM (CYP2D6; human, microsomes, pH 7.4, Percent of Control Activity, CYP 2D6, 200 µM, 30-Minute Preincubation) of 95.7%. For the same compound, the activity at 200 µM (CYP2D6; human, microsomes, pH 7.4, Percent of Control Activity, CYP 2D6, 200 µM, Zero-Minute Preincubation) was 78.8%, the IC50 (MATE1; IC50, [14C]Metformin (20 µM)) was 175 µM and the IC50 (MATE1; human, pH 7.4, IC50, [14C]Metformin (20 µM)) was greater than 20 µM. The “MBI Kapp” value (CYP3A4/5) was 163.000 µM, the “fm,CYP3A” value (CYP3A; formation of the metabolite from PF-00835231 in HLM) was 0.86 and the microsomal CLint (CYP3A; human, pooled human liver microsomes, pH 7.5) was 4.2 µL/min/mg.
